Assays:
[1] = Surface laser light scattering (SLLS); for viscosity: Liquid
[2] = wn = mass fraction of the nth substance listed; details: Surface laser light scattering (SLLS); for viscosity: Liquid

CCCCCCCCCCCC [dodecane]
[1]
Details | surface tension liquid-gas [mN/m] | viscosity [mPa·s]
323.15 K | 21.64 | 0.9225
348.15 K | 19.91 | 0.6763
373.15 K | 18.19 | 0.507
398.15 K | 16.22 | 0.4003
423.15 K | 14.33 | 0.3223
448.15 K | 12.38 | 0.2595
473.15 K | 10.67 | 0.2156
498.15 K | 8.95 | 0.1821
523.15 K | 7.25 | 0.1532
548.15 K | 5.64 | 0.1277
573.15 K | 4.14 | 0.1051

CCCCCCCCCCCCCCCCCCCCCCCCCCCC [octacosane]
[1]
Details | surface tension liquid-gas [mN/m] | viscosity [mPa·s]
398.15 K | 21.33 | 1.814
423.15 K | 19.53 | 1.361
448.15 K | 17.78 | 1.025
473.15 K | 16.57 | 0.8318
498.15 K | 15.38 | 0.6847
523.15 K | 14.18 | 0.5675
548.15 K | 12.86 | 0.4753
573.15 K | 11.51 | 0.3995

CCCCCCCCCCCCCCCCCCCCCCCCCCCC [octacosane] + CCCCCCCCCCCC
[2]
Details | surface tension liquid-gas [mN/m] | viscosity [mPa·s]
373.15 K, w2 = 0.156 | 21.71 | 1.944
398.15 K, w2 = 0.156 | 19.8 | 1.412
423.15 K, w2 = 0.156 | 18.5 | 1.089
448.15 K, w2 = 0.155 | 17.07 | 0.8604
473.15 K, w2 = 0.155 | 15.59 | 0.6912
498.15 K, w2 = 0.154 | 14.15 | 0.5671
523.15 K, w2 = 0.152 | 12.84 | 0.4787
548.15 K, w2 = 0.15 | 11.56 | 0.4075
573.15 K, w2 = 0.148 | 10.3 | 0.3445
